This is an account of results in patent US20250302817A1, “METHODS FOR TREATING PTEN-MUTANT TUMORS” (Icahn School of Medicine at Mount Sinai, priority 2016, published 2025).

The structures appear in SMILES notation. Like-named read-outs stand apart in the source and are kept apart here. Some results are limits rather than exact numbers.

For data set [1] the following is noted: cited from earlier work; for median t½: healthy volunteers and MS patients.
The test system of data set [2] is MCCL-357 and MCCL-278 cells. The data set can be described thus: Karyotyping (chromosomal analysis). To be noted: A771726, by 48 h; MCCL-357 compared to MCCL-278. It is filed as cell-based, mouse. As for the experimental part: FIG. 4A is a graph showing positively-stained cells labeled with a gamma-H2AX antibody; cells were analyzed by flow cytometry (Student's t-test, *p<0.05, n=3). […] The mean fluorescence intensity (MFI) was determined using flow cytometry (Student's t-test, *p<0.01, n=3). FIG. 4C is a series of representative photographs showing MEFs treated with 150 μM A771726 for 24 h and labeled with EdU and gamma-H2AX. Left: representative confocal microscopy images. Right: quantified EdU and gamma-H2AX colocalized foci (Student's t-test, *p<0.05, n=3). […] Left: representative confocal microscopy images. Right: quantification of the number of foci per cell (Student's t-test, p>0.05, n=6). FIG. 4E is a graph showing the percentage of cells treated with 150 μM A771726 for times indicated and labeled with antibodies to RPA and gamma-H2AX positively staining for RPA alone or both RPA and gamma-H2AX; cells were analyzed by flow cytometry (Student's t-test, *p<0.05, n=4). […] FIGS. 4G and 4H are graphs quantifying the number of chromosomal breaks and multiradial formations per haploid genome (Student's t-test, *p-values on figure, cells scored/replicate>100). […]
FIG. 10D is a bar graph showing a quantitative depiction of the percent cell area with EdU-staining from images in FIG. 4D, used to normalize foci to cell size (Student's t-test, p>0.05, not significant, n=6). […]

A further data set concerns the target T1, CYP2C19 (Homo sapiens, UniProt P33261).
T1 construct: omeprazole (a CYP2C19 substrate); host or cells: human subjects, in vivo
The settings on record: in vivo; cited from earlier work.

The mark [3] stands for this setting: without accelerated elimination procedure.

T1 sequence (P33261 whole entry): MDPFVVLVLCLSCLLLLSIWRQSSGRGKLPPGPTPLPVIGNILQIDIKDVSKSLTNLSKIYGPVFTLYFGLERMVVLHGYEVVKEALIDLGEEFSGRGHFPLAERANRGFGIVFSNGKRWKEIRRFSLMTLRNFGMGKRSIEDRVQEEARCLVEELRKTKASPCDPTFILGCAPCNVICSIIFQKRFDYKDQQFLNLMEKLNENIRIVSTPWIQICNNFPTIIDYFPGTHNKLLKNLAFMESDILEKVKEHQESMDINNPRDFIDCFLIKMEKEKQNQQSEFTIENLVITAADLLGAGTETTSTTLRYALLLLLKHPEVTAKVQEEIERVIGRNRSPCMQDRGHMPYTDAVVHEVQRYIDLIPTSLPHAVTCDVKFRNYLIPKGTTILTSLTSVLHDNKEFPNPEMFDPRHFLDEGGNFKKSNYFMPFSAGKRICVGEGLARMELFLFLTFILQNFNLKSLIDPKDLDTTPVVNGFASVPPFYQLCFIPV

`C/C(O)=C(\C#N)C(=O)Nc1ccc(C(F)(F)F)cc1` [teriflunomide, (Z)-2-Cyano-3-hydroxy-but-2-enoic acid-(4trifluoromethylphenyl)-amide]: in data set [1] (human, in vivo), the “effect of food on teriflunomide pharmacokinetics” value was “does not have a clinically relevant effect”, the “time to reach steady-state concentrations” value is “approximately 3 months” and the “volume of distribution (Vss)” value is given as 0.13 L/kg. In addition, in data set [1] (over 21 days), the “administered dose excreted via feces” value is recorded as 37.5%; the “administered dose excreted via feces and urine” value is 60.1%; the “administered dose excreted via urine” value is recorded as 22.6%. For the same compound, the “clearance rate less in females than in males” value in data set [1] (population analysis) was 23%. Moreover, the “increase in clearance, smokers over non-smokers” value in data set [1] (population-based pharmacokinetic analysis of phase III data) is given as 38%. In data set [1] (repeated doses of 7 mg), the “median t½” value was “approximately 18 days”. Besides, in data set [1] (repeated doses of 14 mg), the “median t½” value is given as around 19 days. Further, the “estimated AUC accumulation ratio” value in data set [1] (repeated doses of 7 or 14 mg) is on record as “approximately 30”. Moreover, in data set [1] (single IV administration), the total body clearance is 30.5 mL/h. Also, in data set [1] (setting [3]), the “time to reach plasma concentrations less than 0.02 mg/L, longest (individual variations in drug clearance)” value is reported as at most 2 years and the “time to reach plasma concentrations less than 0.02 mg/L, on average” value was 8 months. Also, in data set [2], the “chromosome gaps, breaks, and multiradial formations” value was “greater number of chromosome gaps, breaks, and multiradial formations in MCCL-357 cells”. Moreover, at CYP2C19, the “effect on pharmacokinetics of omeprazole (a CYP2C19 substrate)” value is “does not affect the pharmacokinetics”.
